Data from ChEMBL document CHEMBL4304800, “C4-Phenylthio β-lactams: Effect of the chirality of the β-lactam ring on antimicrobial activity” (2019).
In brackets after ≈: the same amount, converted by molar mass. Activity calls are given as the source filed them. The calls are words filed in the database; no cut-off is given here.

Experiments:
[1] = test system: Mycobacterium tuberculosis; assay: Antitubercular activity against serine beta-lactamase producing Mycobacterium tuberculosis H37Rv after 14 days in presence of middlebrook 7H9/BSA medium by eleven fold serial dilution method; assay type: functional; settings: 336 h
[2] = test system: Mycobacterium tuberculosis; assay: Antitubercular activity against serine beta-lactamase producing Mycobacterium tuberculosis H37Rv after 14 days in presence of GAST/Fe medium by eleven fold serial dilution method; assay type: functional; settings: 336 h
[3] = test system: Mycobacterium tuberculosis; assay: Antitubercular activity against clinical drug sensitive Mycobacterium tuberculosis K14b00DS after 14 days in presence of middlebrook 7H9/BSA medium by eleven fold serial dilution method; assay type: functional; settings: 336 h
Moraxella catarrhalis = assay: Bactericidal activity against serine beta-lactamase producing Moraxella catarrhalis incubated in MH broth for 24 to 48 hrs by microbroth dilution method; assay type: functional
[4] = test system: Mycobacterium tuberculosis; assay: (§1) Bactericidal activity against serine beta-lactamase producing Mycobacterium tuberculosis H37Rv assessed as induction of microbial kill at MIC preincubated in middlebrook 7H9 medium for 7 days and further incubated in middlebrook 7H11/BSA supplemented with OADC for 3 weeks by serial dilution based colony counting method; assay type: functional
[5] = test system: Mycobacterium tuberculosis; assay: as §1, with “reduction in” for “induction of”, “cell number” for “kill”; assay type: functional, organism-based

| Structure (SMILES) | MIC99 [1] [µg/mL] | MIC99 [2] [µg/mL] | MIC [3] [µg/mL] | MBC (Moraxella catarrhalis) [µg/mL] | MIC (Moraxella catarrhalis) [µg/mL] | LCK [4] | Activity [5] |
| --- | --- | --- | --- | --- | --- | --- | --- |
| NNC(=O)c1ccncc1 [ISONIAZID] | 0.07 | 0.02 | 0.08 |  |  |  |  |
| C[C@@H](NC(=O)N1C(=O)C[C@@H]1Sc1ccc(C(F)(F)F)cc1)c1ccccc1 | 100 |  |  | 200 (≈ 507 µM) | 200 (≈ 507 µM) |  |  |
| C[C@@H](NC(=O)N1C(=O)C[C@@H]1Sc1ccc(F)cc1F)c1ccccc1 | 25 | 0.7 | 25 | 50 (≈ 138 µM) | 50 (≈ 138 µM) |  |  |
| COc1ccc(S[C@H]2CC(=O)N2C(=O)N[C@@H](C)c2ccccc2)cc1 | > 50 | 25 |  | 50 (≈ 140 µM) | 50 (≈ 140 µM) |  |  |
| O=C1CC(Sc2ccc(C(F)(F)F)cc2)N1 (racemic) | 25 |  |  |  |  |  |  |
| C[C@H](NC(=O)N1C(=O)C[C@H]1Sc1ccc(F)cc1Cl)c1ccccc1 | 37.5 | 1.5 |  | 200 (≈ 528 µM) | 200 (≈ 528 µM) |  |  |
| C[C@H](NC(=O)N1C(=O)C[C@@H]1Sc1ccc(F)cc1)c1ccccc1 | 50 | 12.5 |  | 50 (≈ 145 µM) | 25 (≈ 72.6 µM) |  |  |
| COc1ccccc1S[C@H]1CC(=O)N1C(=O)N[C@@H](C)c1ccccc1 | 25 | 6.2 |  | 50 (≈ 140 µM) | 50 (≈ 140 µM) |  |  |
| O=C1CC(Sc2ccc(F)c(Cl)c2)N1 (racemic) |  | 0.7 |  |  |  |  |  |
| C[C@H](NC(=O)N1C(=O)C[C@@H]1Sc1ccccc1F)c1ccccc1 | 25 | 6.2 |  | 200 (≈ 581 µM) | 25 (≈ 72.6 µM) |  |  |
| O=C1CC(Sc2ccccc2F)N1C(=O)NCc1ccccc1 (racemic) | 25 |  |  |  |  |  |  |
| C[C@@H](NC(=O)N1C(=O)C[C@H]1[Se]c1ccccc1)c1ccccc1 | 25 | 12.5 |  | 50 (≈ 134 µM) | 25 (≈ 67 µM) |  |  |
| O=C1CC(Sc2ccc(F)c(F)c2)N1 (racemic) | 50 |  |  |  |  | <3 | Active |
| C[C@@H](NC(=O)N1C(=O)C[C@@H]1Sc1ccc(F)c(Cl)c1)c1ccccc1 | 25 | 1.5 |  | 25 (≈ 66 µM) | 25 (≈ 66 µM) |  |  |
| C[C@@H](NC(=O)N1C(=O)C[C@H]1Sc1ccc(F)cc1F)c1ccccc1 | 50 | 0.3 | 25 | 12.5 (≈ 34.5 µM) | 12.5 (≈ 34.5 µM) |  |  |
| C[C@H](NC(=O)N1C(=O)C[C@@H]1[Se]c1ccccc1)c1ccccc1 | 25 | 6.2 |  | 50 (≈ 134 µM) | 25 (≈ 67 µM) |  |  |

| Structure (SMILES) | MIC99 [1] [µg/mL] | MIC99 [2] [µg/mL] | MIC [3] [µg/mL] | MBC (Moraxella catarrhalis) [µg/mL] | MIC (Moraxella catarrhalis) [µg/mL] | LCK [4] | Activity [5] |
| --- | --- | --- | --- | --- | --- | --- | --- |
| C[C@H](NC(=O)N1C(=O)C[C@H]1[Se]c1ccccc1)c1ccccc1 | 25 | 6.2 |  | 50 (≈ 134 µM) | 25 (≈ 67 µM) |  |  |
| C[C@@H](NC(=O)N1C(=O)C[C@@H]1Sc1ccc(F)c(F)c1)c1ccccc1 | > 100 | 0.7 |  | 25 (≈ 69 µM) | 25 (≈ 69 µM) |  |  |
| C[C@H](NC(=O)N1C(=O)C[C@H]1Sc1ccc(F)c(Cl)c1)c1ccccc1 | 25 | 1.5 |  | 200 (≈ 528 µM) | 200 (≈ 528 µM) |  |  |
| C[C@H](NC(=O)N1C(=O)C[C@H]1Sc1ccc(C(F)(F)F)cc1)c1ccccc1 | 100 |  |  | 200 (≈ 507 µM) | 200 (≈ 507 µM) |  |  |
| COc1ccccc1S[C@H]1CC(=O)N1C(=O)N[C@H](C)c1ccccc1 | 50 | 25 |  | 50 (≈ 140 µM) | 50 (≈ 140 µM) |  |  |
| C[C@@H](NC(=O)N1C(=O)C[C@H]1Sc1ccc(F)c(Cl)c1)c1ccccc1 | 25 | 1.5 |  | 25 (≈ 66 µM) | 25 (≈ 66 µM) |  |  |
| C[C@H](NC(=O)N1C(=O)C[C@@H]1Sc1c(F)c(F)c(F)c(F)c1F)c1ccccc1 | 100 | 0.7 |  | 6.2 (≈ 14.9 µM) | 6.2 (≈ 14.9 µM) |  |  |
| C[C@@H](NC(=O)N1C(=O)C[C@@H]1Sc1ccc(F)cc1)c1ccccc1 | 50 | 12.5 |  | 25 (≈ 72.6 µM) | 25 (≈ 72.6 µM) |  |  |
| C[C@@H](NC(=O)N1C(=O)C[C@@H]1Sc1ccccc1F)c1ccccc1 | 25 | 12.5 |  | 50 (≈ 145 µM) | 25 (≈ 72.6 µM) |  |  |
| COc1ccc(S[C@@H]2CC(=O)N2C(=O)N[C@H](C)c2ccccc2)cc1 | 100 | 25 |  | 50 (≈ 140 µM) | 50 (≈ 140 µM) |  |  |
| C[C@H](NC(=O)N1C(=O)C[C@H]1Sc1ccc(F)cc1)c1ccccc1 | 50 | 12.5 |  | 50 (≈ 145 µM) | 50 (≈ 145 µM) |  |  |
| COc1ccccc1S[C@@H]1CC(=O)N1C(=O)N[C@@H](C)c1ccccc1 | 100 | 25 |  | 100 (≈ 281 µM) | 100 (≈ 281 µM) |  |  |
| COc1ccccc1SC1CC(=O)N1C(=O)NCc1ccccc1 (racemic) | 188 |  |  |  |  |  |  |
| O=C1CC(Sc2ccc(F)c(F)c2)N1C(=O)NCc1ccccc1 (racemic) | 6.2 |  |  |  |  |  |  |
| O=C1CC(Sc2ccc(F)c(Cl)c2)N1C(=O)NCc1ccccc1 (racemic) |  |  |  | 6.2 (≈ 17 µM) | 6.2 (≈ 17 µM) |  |  |
